Measurements as given in ChEMBL document CHEMBL6153034, “Synthesis of dolutegravir derivatives modified by 1,2,3-triazole structure and their anti-inflammatory activity in LPS-induced BV2 cells” (Bioorg Med Chem Lett, 2025).

What was measured:
[1] = system: BV-2; assay: Antiinflammatory activity in LPS induced mouse BV-2 cells assessed as NO production at 10 uM by Griess reagent based assay relative to control
[2] = system: BV-2; assay: Antiinflammatory activity in LPS induced mouse BV-2 cells assessed as NO production at 1 uM by Griess reagent based assay relative to control
[3] = Cytotoxicity against mouse BV-2 cells assessed as cell viability at 10 uM by MTT assay relative to control; type: toxicity, cell-based; conditions: read-out: Activity
[4] = Cytotoxicity against mouse BV-2 cells assessed as cell viability at 1 uM by MTT assay relative to control; type: toxicity, cell-based; conditions: read-out: Activity

| SMILES | level, % of control at 10 µM [1] | level, % of control at 1 µM [2] | viability at 10 µM [3] | viability at 1 µM [4] |
| --- | --- | --- | --- | --- |
| COc1c2n(cc(C(=O)Nc3ccc(-c4cn(-c5cc(C(F)(F)F)cc(C(F)(F)F)c5)nn4)cc3)c1=O)C[C@@H]1OCC[C@@H](C)N1C2=O | 99.6% | 105% | 71.1% | 105% |
| COc1c2n(cc(C(=O)Nc3cccc(-c4cn(-c5cccc(C(F)(F)F)c5)nn4)c3)c1=O)C[C@H]1OC[C@H](C)N1C2=O | 78.4% | 104% | 43.6% | 90.7% |
| COc1ccccc1-n1cc(-c2ccccc2NC(=O)c2cn3c(c(OC)c2=O)C(=O)N2[C@H](C)CCO[C@H]2C3)nn1 | 70.3% | 87.1% | 93.5% | 102% |
| COc1c2n(cc(C(=O)Nc3ccccc3-c3cn(-c4ccccc4Cl)nn3)c1=O)C[C@@H]1OCC[C@@H](C)N1C2=O | 65.9% | 92.4% | 98.3% | 97.9% |
| COc1c2n(cc(C(=O)Nc3cccc(-c4cn(-c5ccccc5F)nn4)c3)c1=O)C[C@@H]1OCC[C@@H](C)N1C2=O | 53.7% | 91.7% | 68.6% | 103% |
| COc1c2n(cc(C(=O)Nc3cccc(-c4cn(-c5ccc(C(F)(F)F)cc5)nn4)c3)c1=O)C[C@H]1OC[C@H](C)N1C2=O | 101% | 102% | 63.3% | 108% |
| COc1c2n(cc(C(=O)Nc3ccc(-c4cn(-c5c(C)cc(C)cc5C)nn4)cc3)c1=O)C[C@@H]1OCC[C@@H](C)N1C2=O | 78.6% | 98.9% | 114% | 106% |
| COc1c2n(cc(C(=O)Nc3ccccc3-c3cn(-c4ccccc4F)nn3)c1=O)C[C@@H]1OCC[C@@H](C)N1C2=O | 78.7% | 86.8% | 98.5% | 100% |
| CCc1ccccc1-n1cc(-c2cccc(NC(=O)c3cn4c(c(OC)c3=O)C(=O)N3[C@H](C)CCO[C@H]3C4)c2)nn1 | 59.9% | 94.5% | 49.8% | 101% |
| COc1c2n(cc(C(=O)Nc3ccc(-c4cn(-c5ccccc5)nn4)cc3)c1=O)C[C@@H]1OCC[C@@H](C)N1C2=O | 91.4% | 88.8% | 70.2% | 104% |
| COc1ccccc1-n1cc(-c2cccc(NC(=O)c3cn4c(c(OC)c3=O)C(=O)N3[C@@H](C)CO[C@@H]3C4)c2)nn1 | 68% | 96.5% | 50.4% | 94.1% |
| COc1c2n(cc(C(=O)Nc3cccc(-c4cn(-c5c(C)cc(C)cc5C)nn4)c3)c1=O)C[C@H]1OC[C@H](C)N1C2=O | 89.6% | 116% | 49.3% | 94.6% |
| COc1c2n(cc(C(=O)Nc3cccc(-c4cn(-c5cc(C(F)(F)F)cc(C(F)(F)F)c5)nn4)c3)c1=O)C[C@@H]1OCC[C@@H](C)N1C2=O | 71.1% | 81.6% | 71.3% | 108% |
| COc1c2n(cc(C(=O)Nc3ccccc3-c3cn(-c4cc(C(F)(F)F)cc(C(F)(F)F)c4)nn3)c1=O)C[C@@H]1OCC[C@@H](C)N1C2=O | 73% | 86.6% | 112% | 104% |
| COc1c2n(cc(C(=O)Nc3cccc(-c4cn(-c5cc(C(F)(F)F)ccc5C(F)(F)F)nn4)c3)c1=O)C[C@@H]1OCC[C@@H](C)N1C2=O | 43.6% | 80.8% | 42% | 104% |
| COc1c2n(cc(C(=O)Nc3cccc(-c4cn(-c5ccccc5Cl)nn4)c3)c1=O)C[C@H]1OC[C@H](C)N1C2=O | 59.4% | 106% | 43.6% | 90.7% |
| COc1c2n(cc(C(=O)Nc3cccc(-c4cn(-c5ccccc5I)nn4)c3)c1=O)C[C@H]1OC[C@H](C)N1C2=O | 120% | 143% | 48.7% | 99.8% |
| COc1c2n(cc(C(=O)Nc3cccc(-c4cn(-c5cc(C(F)(F)F)cc(C(F)(F)F)c5)nn4)c3)c1=O)C[C@H]1OC[C@H](C)N1C2=O | 97.9% | 114% | 69.6% | 97.1% |
| C[C@@H]1C[C@H]2[C@@H]3CCC4=CC(=O)C=C[C@]4(C)[C@@]3(F)[C@@H](O)C[C@]2(C)[C@@]1(O)C(=O)CO [DEXAMETHASONE] | 65% |  |  |  |
